Literature values as cited in patent publication US8569328B1, “Compositions and methods comprising tilidine or related compounds and dextromethorphan” (Antecip Bioventures II LLC, priority 2011, dated 2013).

What was measured:
[1] = three large multicenter randomized studies; dextromethorphan added to morphine
[2] = target: cytochrome P450 isozyme CYP2D6 (Homo sapiens, UniProt P10635); conditions: in vitro
cytochrome P450 isozyme CYP2D6, sequence (P10635 whole entry): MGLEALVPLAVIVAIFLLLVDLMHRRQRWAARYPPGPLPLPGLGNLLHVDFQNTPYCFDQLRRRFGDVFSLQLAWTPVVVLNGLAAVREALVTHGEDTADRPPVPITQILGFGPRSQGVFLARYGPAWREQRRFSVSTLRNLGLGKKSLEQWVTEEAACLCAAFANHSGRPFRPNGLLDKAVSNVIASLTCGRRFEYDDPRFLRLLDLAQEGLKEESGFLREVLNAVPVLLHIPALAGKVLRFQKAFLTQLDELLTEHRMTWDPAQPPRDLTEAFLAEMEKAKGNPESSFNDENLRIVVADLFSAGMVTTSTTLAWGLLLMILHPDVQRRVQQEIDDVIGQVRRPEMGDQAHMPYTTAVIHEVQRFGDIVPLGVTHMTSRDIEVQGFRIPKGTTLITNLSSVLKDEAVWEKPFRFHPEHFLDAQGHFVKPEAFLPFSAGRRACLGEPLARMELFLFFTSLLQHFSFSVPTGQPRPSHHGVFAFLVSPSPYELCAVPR

Compound	benefit from the addition of dextromethorphan to morphine (enhancement of opioid analgesia) [1]	inhibition of cytochrome P450 isozymes including CYP2D6 [2]
COc1ccc2c(c1)[C@]13CCCC[C@@H]1[C@H](C2)N(C)CC3 [dextromethorphan]	failed to show any benefit	–
nortilidine	–	inhibit
CCOC(=O)C1(c2ccccc2)CCC=CC1N(C)C (stereo not drawn) [tilidine]	–	inhibit
